Assay results: patent publication US8247538B2, “Preparation method of radioisotope labeling compound using carbon nanotube” (Korea Atomic Energy Research Institute, priority 2006, dated 2012)

Experiment: In vivo dynamic kinetics, gamma camera imaging after intravenous injection
Design: species or system New Zealand White male rabbits
Conditions: rabbits, 100 μCi/0.1 ml into left ear vein
Description: The ^99mTc-2,6-diisopropylacetanilidoiminodiacetic acid prepared in Example 1 was assayed for in vivo dynamic kinetics as follows.
After 6-week-old New Zealand White male rabbits (2887.6±101.5 g, n=3) were anesthetized with ketamine and xylazine, the radioactive compound of Example 1 was injected at a dose of 100 μCi/0.1 ml into the left ear vein of each of the rabbits. All of the rabbits were placed in a pronating posture. Moving pictures were taken for 30 min of each of the rabbits using a gamma camera fitted with a low energy, multipurpose collimator while 16 still pictures were also taken at predetermined time intervals. The image analyzer was set to 140 KeV with a 20% energy window. Image data were analyzed under the dynamic procedure of a Microdelta system (Simens, USA). The static images were taken at 1.52, 3.45, 5.37, 7.30, 9.22, 11.15, 13.07, 15.00, 16.52, 18.45, 20.37, 22.30, 24.22, 26.15, 28.07 and 30 min after the injection, and the results are given in FIG. 3.

## ^99mTc-2,6-diisopropylacetanilidoiminodiacetic acid [Example 1]
Images 1.52-30 min after injection
  in vivo distribution seen in gamma camera images (FIG. 3): detected prominently in the hepatobiliary system, with the highest concentration at the liver
Imaging for 30 min
  contrast ratio between images taken of the liver and of other organs, compared with conventional contrast media for imaging the hepatobiliary system: higher
